We go through three molecules from patent US4975372A, “Microbial transformation product of L-683,590” (Merck & Co., Inc., priority 1989, dated 1990).

As usually defined, the inhibition is the drop in the measured response relative to a control, in per cent. Broadly, the IC50 is the point on the concentration scale where inhibition reaches its midpoint.

The conditions of data set [1]: reputed; EPO Publication No. 0184162; cited from earlier work.
The next data set relates to mouse T lymphocytes. Nature of the data set: T-cell proliferation assay (ionomycin plus PMA induced, tritiated thymidine uptake). The format is cell-based, mouse (C57B1/6). The method, then:
The principle of this assay is to measure the proliferation of mouse T lymphocytes stimulated with the combination of ionomycin plus PMA. A positive sample in this assay will inhibit T-cell proliferation, as indicated by reduced tritiated thymidine uptake.
Purified L-685,487, as prepared by HPLC above, was dissolved in absolute ethanol at 1 mg/ml.
Spleens from C57B1/6 mice were taken under sterile conditions and gently dissociated in ice-cold RPMI 1640 culture medium (GIBCO, Grand Island, N.Y.) supplemented with 10% heat-inactivated fetal calf serum (GIBCO). Cells were pelleted by centrifugation at 1500 rpm for 8 minutes. Contaminating red cells were removed by treating the pellet with ammonium chloride lysing buffer (GIBCO) for 2 minutes at 4° C. Cold medium was added and cells were again centrifuged at 1500 rpm. for 8 minutes. T lymphocytes were then isolated by separation of the cell suspension on nylon wool columns as follows: Nylon wool columns were prepared by packing approximately 4 grams of washed and dried nylon wool into 20 ml plastic syringes. The columns were sterilized by autoclaving at 250° F. for 30 minutes. Nylon wool columns were wetted with warm (37° C.) culture medium and rinsed with the same medium. Washed spleen cells resuspended in warm medium were slowly applied to the nylon wool. The columns were then incubated in an upright position at 37° C. for 1 hour. Non-adherent T lymphocytes were eluted from the columns with warm culture medium and the cell suspensions were spun as above.
Purified T lymphocytes were resuspended at 2.5×10^5 cells/ml in complete culture medium composed of RPMI 1640 medium with 10% heat-inactivated fetal calf serum, […] glutamine, 1 mM sodium pyruvate, 2×10^-5 M 2-mercaptoethanol and 50 μg/ml gentamycin. Ionomycin was added at 250 ng/ml and PMA at 10 ng/ml. The cell suspension was immediately distributed into 96 well flat-bottom microculture plates (Costar) at 200 μl/well. The control, being the medium without test drug, and various below-indicated dilutions of the sample (above-describedpurified L-683,756) to be tested were then added in triplicate wells at 20 μl/well. L-679,934 was used as a standard. The culture plates were then incubated at 37° C. in a humidified atmosphere of 5% CO2 -95% air for 44 hours. The proliferation of T lymphocytes was assessed by measurement of tritiated thymidine incorporation. After 44 hours of culturing, the cells were pulse-labelled with 2 μ Ci/well of tritiated thymidine (NEN, Cambridge, Mass.). After another 4 hours of incubation, cultures were harvested on glass fiber filters using a multiple sample harvester. Radioactivity of filter discs corresponding to individual wells was measured by standard liquid scintillation counting methods (Betacounter). Mean counts per minute of replicate wells were calculated and the results expressed as percent inhibition of tritiated thymidine uptake (proliferation) as follows: [formula]

A short description of data set [2]: Solubility (physical characteristics). The format is physicochemical. Particulars: methanol.

Where “and” joins values, the source holds several entries; their conditions need not be identical. Equal values may be shown once. Entries after “also recorded” stand apart in the source; their conditions may differ. Read-outs that look alike come from different tables or passages of the source.

Turning to `C=CC[C@@H]1/C=C(\C)C[C@H](C)C[C@H](OC)[C@H]2O[C@@](O)(C(=O)C(=O)N3CCCC[C@H]3C(=O)O[C@H](/C(C)=C/[C@@H]3CC[C@@H](O)[C@H](OC)C3)[C@H](C)[C@@H](O)CC1=O)[C@H](C)C[C@@H]2OC` [FK-506], in data set [1], the “effectiveness relative to cyclosporin” value is listed as 100 times.

Regarding `C=CC[C@@H]1/C=C(\C)C[C@H](C)C[C@H](OC)[C@H]2O[C@@](O)(C(=O)C(=O)N3CCCC[C@H]3C(=O)O[C@H](/C(C)=C/[C@@H]3CC[C@@H](O)[C@H](OC)C3)[C@H](C)[C@@H](O)CC1=O)[C@H](C)C[C@@H]2OC.O` [L679,934, reference compound], the “% inhibition, standard” value in the data set on mouse T lymphocytes (10 ng/ml) is reported as 99%.

`CC[C@@H]1/C=C(\C)CC(C)C[C@H](OC)C(O)[C@@H]2CC(C)C(O)(O2)C(=O)C(=O)N2CCCC[C@H]2C(=O)O[C@H](/C(C)=C/[C@@H]2CC[C@@H](O)C(OC)C2)[C@H](C)C(O)CC1=O` (stereo partly drawn) [L-685,487]: the inhibition at 0.00058 µg/mL with mouse T lymphocytes (Mus musculus, T-lymphocyte, 0.58 ng/ml) is 0%. The inhibition at 0.00087 µg/mL in the data set on mouse T lymphocytes (Mus musculus, T-lymphocyte, 0.87 ng/ml) is 0%. Moreover, the inhibition at 0.0013 µg/mL in the data set with mouse T lymphocytes (Mus musculus, T-lymphocyte, 1.3 ng/ml) is 9%. Besides, the inhibition at 0.0019 µg/mL in the data set with mouse T lymphocytes (Mus musculus, T-lymphocyte, 1.9 ng/ml) was determined as 10%. Besides, in the data set with mouse T lymphocytes (Mus musculus, T-lymphocyte, 2.9 ng/ml), the inhibition at 0.0029 µg/mL worked out at 10%. Moreover, the inhibition at 0.0044 µg/mL in the data set with mouse T lymphocytes (Mus musculus, T-lymphocyte, 4.4 ng/ml) amounted to 39%. Also, in the data set with mouse T lymphocytes (Mus musculus, T-lymphocyte, 6.6 ng/ml), the inhibition at 0.0066 µg/mL was found to be 71%. Also, the inhibition at 0.0099 µg/mL in the data set with mouse T lymphocytes (Mus musculus, T-lymphocyte, 9.9 ng/ml) is 88%. Besides, the inhibition at 0.015 µg/mL in the data set on mouse T lymphocytes (Mus musculus, T-lymphocyte, 15.0 ng/ml) was determined as 92%. The inhibition at 0.022 µg/mL with mouse T lymphocytes (Mus musculus, T-lymphocyte, 22.0 ng/ml) turned out to be 98%. Further, the inhibition at 0.033 µg/mL in the data set with mouse T lymphocytes (Mus musculus, T-lymphocyte, 33.0 ng/ml) stood at 99%. For the same molecule, the inhibition at 0.05 µg/mL in the data set on mouse T lymphocytes (Mus musculus, T-lymphocyte, 50.0 ng/ml) came out at 99%. For the same molecule, the IC50 in the data set on mouse T lymphocytes (Mus musculus, T-lymphocyte, T-cell proliferation, 3H-thymidine pulse 4 hours, harvest at 48 hours, read-out: IC50) was 0.0049 µg/mL and 6.3 nM; in the data set with mouse T lymphocytes (Mus musculus, T-lymphocyte, generally in the range, read-out: IC50, general range), 6 to 12 nM. Also, in the data set with mouse T lymphocytes (addition of 50 units/m of recombinant human IL2), the “Inhibition of proliferation upon addition of IL2” value is “Inhibition of proliferation was reversed”. The “inhibition of T-cell activation (immunosuppressive activity)” value in the data set on mouse T lymphocytes (qualitative) is reported as “positive inhibition of T-cell activation; also recorded: positive immunosuppressive activity”. Moreover, the Solubility entry in data set [2] is “Solubility in methanol”.
